For data set [1], the target named is T1, AHR (Homo sapiens, UniProt P35869).
T1 sequence (P35869 11-848): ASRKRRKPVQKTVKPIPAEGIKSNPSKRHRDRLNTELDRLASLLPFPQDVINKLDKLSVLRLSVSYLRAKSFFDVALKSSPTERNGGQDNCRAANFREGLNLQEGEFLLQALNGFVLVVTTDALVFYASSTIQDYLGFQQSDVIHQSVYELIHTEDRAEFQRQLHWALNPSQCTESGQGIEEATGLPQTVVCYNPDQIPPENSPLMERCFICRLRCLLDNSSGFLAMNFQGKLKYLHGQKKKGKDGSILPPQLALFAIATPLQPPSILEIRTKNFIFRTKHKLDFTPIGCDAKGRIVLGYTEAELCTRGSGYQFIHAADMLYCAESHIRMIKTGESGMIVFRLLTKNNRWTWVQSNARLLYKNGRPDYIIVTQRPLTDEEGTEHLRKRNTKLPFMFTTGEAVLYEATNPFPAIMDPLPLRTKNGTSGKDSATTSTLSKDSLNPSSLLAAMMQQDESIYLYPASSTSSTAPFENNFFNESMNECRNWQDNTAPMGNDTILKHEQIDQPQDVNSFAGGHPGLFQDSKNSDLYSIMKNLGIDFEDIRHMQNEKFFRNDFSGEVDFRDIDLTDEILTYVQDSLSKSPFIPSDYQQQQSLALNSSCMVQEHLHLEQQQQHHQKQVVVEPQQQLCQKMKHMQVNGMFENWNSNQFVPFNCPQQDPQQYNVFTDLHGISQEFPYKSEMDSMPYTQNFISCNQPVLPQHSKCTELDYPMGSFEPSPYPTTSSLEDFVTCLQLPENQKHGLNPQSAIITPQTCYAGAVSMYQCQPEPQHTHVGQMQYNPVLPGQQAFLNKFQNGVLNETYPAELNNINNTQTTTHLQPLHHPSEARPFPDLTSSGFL
The experiment in a line: In vitro assay 2: agonism in human cell line (transactivation assay).
Procedure: Transactivation Assay in Human Cell Line (In Vitro Assays 1 and 2)
Transactivation assays were carried out in U87 glioblastoma cells (ATCC) endogenously expressing AHR. In addition the cells were stably transfected with an AHR inducible firefly luciferase reporter gene construct that carried AHR-binding sites (DRE) in its promoter and a renilla reporter gene construct with constitutively active promoter.
In Vitro Assay 2: Agonism in Human Cell Line
Cells in medium (tryptophan free RPMI, 1% FCS, 2 mM Glutamine) were grown for 20 hours in absence (negative control) or presence of increasing concentrations of test compounds (typical dilutions: 72 pmol/L, 0.25 nmol/L, 0.89 nmol/L; 3.1 nmol/L, 11 nmol/L, 38 nmol/L, 130 nmol/L, 470 nmol/L, 1.6 μmol/L, 5.7 μmol/L and 20 μmol/L in duplicates). As positive activation control cells were incubated with 300 μM kynurenic acid. Normalization was done by positive and negative controls.
Firefly luciferase activity was determined by the SteadyGlo Luciferase Assay System (Promega, #2520).

The subject of data set [2] is AHR-regulated gene CYP1A1. The experiment in a line: In vitro assay 3: AHR-regulated CYP1A1 expression in human cell line (U937, qPCR).
The target of data set [3] is T1, AHR. The experiment in a line: In vitro assay 1: antagonism in human cell line (transactivation assay, kynurenic acid prestimulated). The settings on record: Assay 1: AHR-luc Hum Antagonism IC50 [M], 150 μM kynurenic acid, 20 hours, firefly luciferase.
The mark [4] stands for this setting: Assay 2: AHR-luc Hum Agonism IC50 [M], no kynurenic acid, 20 hours, firefly luciferase.
Setting [5] is: Homo sapiens, U-937, 6 h, read-out: Assay 3: Hum CYP1A1 Antagonism IC50 [M], U937 cells, 200 μM KA, 6 hours, qPCR.
[6] abbreviates: read-out: Assay 2: AHR-luc Hum Agonism IC50, no kynurenic acid, 20 hours, firefly luciferase.
Where [7] appears, read: read-out: Assay 3: Hum CYP1A1 Antagonism IC50, U937 cells, 200 μM KA, 6 hours, qPCR.

Among the data in patent US11040035B2, “3-oxo-2,6-diphenyl-2,3-dihydropyridazine-4-carboxamides” (BAYER PHARMA AKTIENGESELLSCHAFT, priority 2016, dated 2021) are IC50 values, retold here.

Read-outs that look alike come from different tables or passages of the source.

As to `N#C[C@@H](CO)NC(=O)c1cc(-c2ccc(Cl)cc2)nn(-c2cccc(F)c2)c1=O` [Example 393, 6-(4-chlorophenyl)-N-[(1S)-1-cyano-2-hydroxyethyl]-2-(3-fluorophenyl)-3-oxo-2,3-dihydropyridazine-4-carboxamide], the IC50 was over 2e-05 M at AHR [1] (setting [4]), 4.6e-08 M in data set [2] (setting [5]) and 2.7e-08 M on AHR [3].

With `O=C(NCC1(O)COC1)c1cc(-c2ccc(Cl)cc2)nn(-c2cccc(F)c2)c1=O` [Example 331, 6-(4-chlorophenyl)-2-(3-fluorophenyl)-N-[(3-hydroxyoxetan-3-yl)methyl]-3-oxo-2,3-dihydropyridazine-4-carboxamide], the values for the IC50 (at AHR [1] (setting [4]); in data set [2] (setting [5]); against AHR [3]) were over 2e-05 M, 1.42e-07 M and 7.87e-08 M, respectively.

Turning to `Cc1ccc(-c2cc(C(=O)NCC(O)C(C)C)c(=O)n(-c3cccc(F)c3)n2)cc1` (single isomer, unassigned; enantiomer 1) [Example 11, 2-(3-Fluorophenyl)-N-(2-hydroxy-3-methylbutyl)-6-(4-methylphenyl)-3-oxo-2,3-dihydropyridazine-4-carboxamide, enantiomer 1], the IC50 is over 2e-05 M at AHR [1] (setting [4]), 1.71e-07 M in data set [2] (setting [5]) and 7.94e-08 M against AHR [3].

Take `O=C(NCC(O)C(F)(F)F)c1cc(-c2ccc(Cl)cc2)nn(-c2cccc(F)c2)c1=O` (single isomer, unassigned) [Example 27, 6-(4-Chlorophenyl)-2-(3-fluorophenyl)-3-oxo-N-(3,3,3-trifluoro-2-hydroxypropyl)-2,3-dihydropyridazine-4-carboxamide]: the IC50 at AHR [1] (setting [6]) was over 2e-05 M; in data set [2] (setting [7]) it was 2.44e-07 M; at AHR [3], 1.06e-07 M.

`CC(C)C(O)CNC(=O)c1cc(-c2ccc(Cl)cc2)nn(-c2cccc(F)c2)c1=O` (single isomer, unassigned) [Example 30, 6-(4-Chlorophenyl)-2-(3-fluorophenyl)-N-(2-hydroxy-3-methylbutyl]-3-oxo-2,3-dihydropyridazine-4-carboxamide]: the figures for the IC50 (on AHR [1] (setting [6]); in data set [2] (setting [7]); on AHR [3]) were over 2e-05 M, 1.77e-07 M and 1.33e-07 M, respectively.

As to `O=C(N[C@H]1C[C@@H](O)C1)c1cc(-c2ccc(Cl)cc2)nn(-c2cccc(F)c2)c1=O` [Example 324, 6-(4-chlorophenyl)-2-(3-fluorophenyl)-N-(cis-3-hydroxycyclobutyl)-3-oxo-2,3-dihydropyridazine-4-carboxamide], the IC50 was over 2e-05 M against AHR [1] (setting [4]), 8.18e-08 M in data set [2] (setting [5]) and 4.67e-08 M on AHR [3].

With `O=C(NC1(CO)CC1)c1cc(-c2ccc(Cl)cc2)nn(-c2cccc(F)c2)c1=O` [Example 187, 6-(4-Chlorophenyl)-2-(3-fluorophenyl)-N-[1-(hydroxymethyl)cyclopropyl]-3-oxo-2,3-dihydropyridazine-4-carboxamide], the IC50 was over 2e-05 M at AHR [1] (setting [4]), 1.1e-07 M in data set [2] (setting [5]) and 1.02e-07 M against AHR [3].

`O=C(N[C@H]1CCCC[C@@H]1O)c1cc(-c2ccc(Cl)cc2)nn(-c2cccc(F)c2)c1=O` (single isomer, unassigned) [Example 118, 6-(4-chlorophenyl)-2-(3-fluorophenyl)-N-(trans-2-hydroxycyclohexyl)-3-oxo-2,3-dihydropyridazine-4-carboxamide]: the IC50 was over 2e-05 M against AHR [1] (setting [4]), 3.13e-08 M in data set [2] (setting [5]) and 3.25e-08 M against AHR [3].

Take `COc1ccc(-c2cc(C(=O)N[C@@H](C)[C@H](C)O)c(=O)n(-c3cccc(F)c3)n2)cc1` (relative stereo) [Example 116, rel-2-(3-Fluorophenyl)-N-[(2S,3S)-3-hydroxybutan-2-yl]-6-(4-methoxyphenyl)-3-oxo-2,3-dihydropyridazine-4-carboxamide]: the IC50 against AHR [1] (setting [4]) is over 2e-05 M; in data set [2] (setting [5]), 9.69e-08 M; at AHR [3], 2.9e-08 M.

Turning to `O=C(NCC(O)C(F)F)c1cc(-c2ccc(Cl)cc2)nn(-c2cccc(F)c2)c1=O` (single isomer, unassigned; (-)) [Example 222, (−)-6-(4-Chlorophenyl)-N-(3,3-difluoro-2-hydroxypropyl)-2-(3-fluorophenyl)-3-oxo-2,3-dihydropyridazine-4-carboxamide], the figures for the IC50 (against AHR [1] (setting [4]); in data set [2] (setting [5]); on AHR [3]) were over 2e-05 M, 9.14e-08 M and 4.87e-08 M, respectively.

As for `O=C(NCCCO)c1cc(-c2ccc(C(F)(F)F)cc2)nn(-c2cccc(F)c2)c1=O` [Example 249, 2-(3-Fluorophenyl)-N-(3-hydroxypropyl)-3-oxo-6-[4-(trifluoromethyl)phenyl]-2,3-dihydropyridazine-4-carboxamide], the IC50 against AHR [1] (setting [4]) was over 2e-05 M; in data set [2] (setting [5]) it was 1.07e-07 M; at AHR [3] it was 8.84e-08 M.

For `O=C(NC(CO)C1CCC1)c1cc(-c2ccc(Cl)cc2)nn(-c2cccc(F)c2)c1=O` (racemic) [Example 209, 6-(4-Chlorophenyl)-N-[(1RS)-1-cyclobutyl-2-hydroxyethyl]-2-(3-fluorophenyl)-3-oxo-2,3-dihydropyridazine-4-carboxamide], the results for the half-maximal inhibitory concentration (IC50) (on AHR [1] (setting [4]); in data set [2] (setting [5]); on AHR [3]) were over 2e-05 M, 3.21e-08 M and 3.27e-08 M, respectively.

On to `O=C(NC[C@@H](O)CO)c1cc(-c2ccc(C(F)(F)F)cc2)nn(-c2cccc(F)c2)c1=O` [Example 265, (+)-N-[(2R)-2,3-Dihydroxypropyl]-2-(3-fluorophenyl)-3-oxo-6-[4-(trifluoromethyl)phenyl]-2,3-dihydropyridazine-4-carboxamide], for which the IC50 at AHR [1] (setting [4]) is over 2e-05 M; in data set [2] (setting [5]) it was 2.15e-07 M; at AHR [3] it was 6.04e-08 M.

For `Cc1ccc(-c2cc(C(=O)N[C@H](CO)C(C)C)c(=O)n(-c3cccc(F)c3)n2)cc1` [Example 2, 2-(3-Fluorophenyl)-N-[(2S)-1-hydroxy-3-methylbutan-2-yl]-6-(4-methylphenyl)-3-oxo-2,3-dihydropyridazine-4-carboxamide], the IC50 at AHR [1] (setting [4]) was over 2e-05 M; in data set [2] (setting [5]) it was 1.36e-08 M; against AHR [3], 1.03e-08 M.

As for `O=C(NC(CO)CCO)c1cc(-c2ccc(C(F)(F)F)cc2)nn(-c2cccc(F)c2)c1=O` (racemic) [Example 262, N-[(2RS)-1,4-Dihydroxybutan-2-yl]-2-(3-fluorophenyl)-3-oxo-6-[4-(trifluoromethyl)phenyl]-2,3-dihydropyridazine-4-carboxamide], the IC50 against AHR [1] (setting [4]) is over 2e-05 M; in data set [2] (setting [5]) it was 9.15e-08 M; against AHR [3], 5.51e-08 M.

`C[C@H](NC(=O)c1cc(-c2ccc(OC(F)(F)F)cc2)nn(-c2cccc(F)c2)c1=O)C(C)(C)O` [Example 380, 2-(3-fluorophenyl)-N-[(2S)-3-hydroxy-3-methylbutan-2-yl]-3-oxo-6-[4-(trifluoromethoxy)phenyl]-2,3-dihydropyridazine-4-carboxamide]: the IC50 was over 0.0001 M against AHR [1] (setting [4]), 6.3e-08 M in data set [2] (setting [5]) and 2.8e-08 M against AHR [3].

For the compound `CC[C@@H](CO)NC(=O)c1cc(-c2ccc(OC(F)(F)F)cc2)nn(-c2cccc(F)c2)c1=O` [Example 172, 2-(3-Fluorophenyl)-N-[(2S)-1-hydroxybutan-2-yl]-3-oxo-6-[4-(trifluoromethoxy)phenyl]-2,3-dihydropyridazine-4-carboxamide], the IC50 is over 2e-05 M on AHR [1] (setting [4]), 2.68e-08 M in data set [2] (setting [5]) and 2.63e-08 M against AHR [3].

With `CC(C)(O)C(NC(=O)c1cc(-c2ccc(Cl)cc2)nn(-c2cccc(F)c2)c1=O)C(F)(F)F` (stereo not drawn) [Example 277, 6-(4-Chlorophenyl)-2-(3-fluorophenyl)-3-oxo-N-(1,1,1-trifluoro-3-hydroxy-3-methylbutan-2-yl)-2,3-dihydropyridazine-4-carboxamide], the IC50 against AHR [1] (setting [4]) was over 2e-05 M; in data set [2] (setting [5]), 2.08e-08 M; against AHR [3], 4.94e-09 M.

As for `COC[C@@H](CO)NC(=O)c1cc(-c2ccc(Cl)cc2)nn(-c2cccc(F)c2)c1=O` [Example 314, 6-(4-chlorophenyl)-2-(3-fluorophenyl)-N-[(2R)-1-hydroxy-3-methoxypropan-2-yl]-3-oxo-2,3-dihydropyridazine-4-carboxamide], the IC50 on AHR [1] (setting [4]) was over 2e-05 M; in data set [2] (setting [5]), 2.31e-07 M; on AHR [3], 9.54e-08 M.

The IC50 is the concentration that inhibits the measured activity by half.
